Results: US9695155B2, “Herbicidal substituted pyrimidinyloxy benzene compounds” (E. I. DU PONT DE NEMOURS AND COMPANY, priority 2013, dated 2017)

Legend:
giant foxtail = assay: Test C preemergence; assay type: in vivo, Setaria faberii; details: Setaria faberi, pre-emergence
Summary of the method: (§1)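 Injury was assessed visually against controls 13 to 15 days after application, with 0 meaning no effect and 100 full control; missing entries are shown as a dash. Preemergence sprays hit seeded loam–sand soil, postemergence sprays hit 1- to 4-leaf plants.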

lambsquarters = assay: Test C preemergence; assay type: in vivo, Chenopodium album; details: Chenopodium album, pre-emergence
Summary of the method: as §1

pigweed = assay: Test C preemergence; assay type: in vivo, Amaranthus retroflexus; details: Amaranthus retroflexus, pre-emergence
Summary of the method: as §1

Italian ryegrass [1] = assay: Test A preemergence; assay type: in vivo, Lolium multiflorum
Summary of the method: (§2)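 Injury scores run from 0, no effect, to 100, complete control, judged by eye against untreated plants roughly 10 days after treatment. Chemicals carried a surfactant in a non-phytotoxic solvent and went onto loam–sand soil preemergence or onto one- to two-leaf seedlings postemergence.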

yellow nutsedge = assay: Test C preemergence; assay type: in vivo, Cyperus esculentus; details: Cyperus, pre-emergence
Summary of the method: as §1

blackgrass [2] = assay: Test A postemergence; assay type: in vivo, Alopecurus myosuroides; details: 0 to 100 scale, 0 no effect, 100 complete control
Summary of the method: as §2

corn = assay: Test C preemergence; assay type: in vivo, Zea mays; details: Zea mays, pre-emergence
Summary of the method: as §1

galium [3] = assay: Test C preemergence; assay type: in vivo, Galium aparine; details: Galium, pre-emergence
Summary of the method: as §1

ragweed [4] = assay: Test A preemergence; assay type: in vivo, Ambrosia elatior
Summary of the method: as §2

waterhemp = assay: Test C preemergence; assay type: in vivo, Amaranthus rudis; details: Amaranthus tuberculatus, pre-emergence
Summary of the method: as §1

oilseed rape = assay: Test C preemergence; assay type: in vivo, Brassica napus; details: Brassica napus, pre-emergence
Summary of the method: as §1

blackgrass [5] = assay: Test C preemergence; assay type: in vivo, Alopecurus myosuroides; details: Alopecurus myosuroides, pre-emergence
Summary of the method: as §1

barnyardgrass = assay: Test C preemergence; assay type: in vivo, Echinochloa crus-galli; details: Echinochloa crus-galli, pre-emergence
Summary of the method: as §1

Italian ryegrass [6] = assay: Test A postemergence; assay type: in vivo, Lolium multiflorum; details: 0 to 100 scale, 0 no effect, 100 complete control
Summary of the method: as §2

ragweed [7] = assay: Test C preemergence; assay type: in vivo, Ambrosia elatior; details: Ambrosia artemisiifolia, pre-emergence
Summary of the method: as §1

galium [8] = assay: Test A postemergence; assay type: in vivo, Galium aparine; details: 0 to 100 scale, 0 no effect, 100 complete control
Summary of the method: as §2

johnsongrass = assay: Test C preemergence; assay type: in vivo, Sorghum halepense; details: Sorghum halepense, pre-emergence
Summary of the method: as §1

large (Lg) crabgrass = assay: Test C preemergence; assay type: in vivo, Digitaria sanguinalis; details: Digitaria sanguinalis, pre-emergence
Summary of the method: as §1

[9] = 31 g ai/ha, 0 to 100 scale where 0 is no effect and 100 is complete control, visual, approximately 10 days

N#Cc1cccc(Oc2ncc(Cl)cn2)c1-n1cc(C(F)F)cn1 [Compound 253, 3-(5-chloropyrimidin-2-yl)oxy-2-[4-(difluoromethyl)-1H-pyrazol-1-yl]benzonitrile]
pest or weed control at 16 g/ha (giant foxtail; 16 g ai/ha, preemergence, scale 0 to 100 (0 no effect, 100 complete control), read-out: Foxtail, Giant plant response rating): 35%
pest or weed control at 125 g/ha (giant foxtail; 125 g ai/ha, preemergence, scale 0 (no effect) to 100 (complete control), read-out: Foxtail, Giant plant response rating): 100%
pest or weed control at 62 g/ha (giant foxtail; Preemergence, 62 g ai/ha, scale 0 to 100, 0 no effect, 100 complete control, read-out: Plant response rating, Foxtail, Giant): 98%
pest or weed control at 16 g/ha (lambsquarters; 16 g ai/ha, preemergence, scale 0 to 100 (0 no effect, 100 complete control), read-out: Lambsquarters plant response rating): 100%
pest or weed control at 125 g/ha (lambsquarters; 125 g ai/ha, preemergence, scale 0 (no effect) to 100 (complete control), read-out: Lambsquarters plant response rating): 100%
pest or weed control at 62 g/ha (lambsquarters; Preemergence, 62 g ai/ha, scale 0 to 100, 0 no effect, 100 complete control, read-out: Plant response rating, Lambsquarters): 100%
pest or weed control at 16 g/ha (pigweed; 16 g ai/ha, preemergence, scale 0 to 100 (0 no effect, 100 complete control), read-out: Pigweed plant response rating): 100%
pest or weed control at 125 g/ha (pigweed; 125 g ai/ha, preemergence, scale 0 (no effect) to 100 (complete control), read-out: Pigweed plant response rating): 100%
pest or weed control at 62 g/ha (pigweed; Preemergence, 62 g ai/ha, scale 0 to 100, 0 no effect, 100 complete control, read-out: Plant response rating, Pigweed): 100%
Plant response rating, Ryegrass, Italian (Italian ryegrass [1]; [9]): 20
Ryegrass, Italian plant response rating (0 to 100 scale) (Italian ryegrass [1]; 125 g ai/ha): 20
pest or weed control at 16 g/ha (yellow nutsedge; 16 g ai/ha, preemergence, scale 0 to 100 (0 no effect, 100 complete control), read-out: Nutsedge, Yellow plant response rating): 0%
pest or weed control at 125 g/ha (yellow nutsedge; 125 g ai/ha, preemergence, scale 0 (no effect) to 100 (complete control), read-out: Nutsedge, Yellow plant response rating): 65%
pest or weed control at 62 g/ha (yellow nutsedge; Preemergence, 62 g ai/ha, scale 0 to 100, 0 no effect, 100 complete control, read-out: Plant response rating, Nutsedge, Yellow): 20%
Plant response rating, Blackgrass (blackgrass [2]; 31 g ai/ha): 20
Plant response rating, Blackgrass (blackgrass [2]; 125 g ai/ha): 80
plant injury at 16 g/ha (corn; 16 g ai/ha, preemergence, scale 0 to 100 (0 no effect, 100 complete control), read-out: Corn plant response rating): 0%
plant injury at 125 g/ha (corn; 125 g ai/ha, preemergence, scale 0 (no effect) to 100 (complete control), read-out: Corn plant response rating): 90%
Corn plant response rating (crop injury, 0 = no effect, 100 = complete kill) at 62 g/ha (corn; Preemergence, 62 g ai/ha, scale 0 to 100, 0 no effect, 100 complete control): 35%
pest or weed control at 16 g/ha (galium [3]; 16 g ai/ha, preemergence, scale 0 to 100 (0 no effect, 100 complete control), read-out: Galium plant response rating): 70%
pest or weed control at 125 g/ha (galium [3]; 125 g ai/ha, preemergence, scale 0 (no effect) to 100 (complete control), read-out: Galium plant response rating): 95%
pest or weed control at 62 g/ha (galium [3]; Preemergence, 62 g ai/ha, scale 0 to 100, 0 no effect, 100 complete control, read-out: Plant response rating, Galium): 100%
Plant response rating, Ragweed (ragweed [4]; [9]): 20
Ragweed plant response rating (0 to 100 scale) (ragweed [4]; 125 g ai/ha): 80
pest or weed control at 16 g/ha (waterhemp; 16 g ai/ha, preemergence, scale 0 to 100 (0 no effect, 100 complete control), read-out: Waterhemp plant response rating): 100%
pest or weed control at 125 g/ha (waterhemp; 125 g ai/ha, preemergence, scale 0 (no effect) to 100 (complete control), read-out: Waterhemp plant response rating): 100%
pest or weed control at 62 g/ha (waterhemp; Preemergence, 62 g ai/ha, scale 0 to 100, 0 no effect, 100 complete control, read-out: Plant response rating, Waterhemp): 100%
plant injury at 16 g/ha (oilseed rape; 16 g ai/ha, preemergence, scale 0 to 100 (0 no effect, 100 complete control), read-out: Oilseed Rape plant response rating): 75%
plant injury at 125 g/ha (oilseed rape; 125 g ai/ha, preemergence, scale 0 (no effect) to 100 (complete control), read-out: Oilseed Rape plant response rating): 100%
plant injury at 62 g/ha (oilseed rape; Preemergence, 62 g ai/ha, scale 0 to 100, 0 no effect, 100 complete control, read-out: Plant response rating, Oilseed Rape): 100%
pest or weed control at 16 g/ha (blackgrass [5]; 16 g ai/ha, preemergence, scale 0 to 100 (0 no effect, 100 complete control), read-out: Blackgrass plant response rating): 0%
pest or weed control at 125 g/ha (blackgrass [5]; 125 g ai/ha, preemergence, scale 0 (no effect) to 100 (complete control), read-out: Blackgrass plant response rating): 90%
pest or weed control at 62 g/ha (blackgrass [5]; Preemergence, 62 g ai/ha, scale 0 to 100, 0 no effect, 100 complete control, read-out: Plant response rating, Blackgrass): 90%
pest or weed control at 16 g/ha (barnyardgrass; 16 g ai/ha, preemergence, scale 0 to 100 (0 no effect, 100 complete control), read-out: Barnyardgrass plant response rating): 30%
pest or weed control at 125 g/ha (barnyardgrass; 125 g ai/ha, preemergence, scale 0 (no effect) to 100 (complete control), read-out: Barnyardgrass plant response rating): 100%
pest or weed control at 62 g/ha (barnyardgrass; Preemergence, 62 g ai/ha, scale 0 to 100, 0 no effect, 100 complete control, read-out: Plant response rating, Barnyardgrass): 100%
Plant response rating, Ryegrass, Italian (Italian ryegrass [6]; 31 g ai/ha): 0
Plant response rating, Ryegrass, Italian (Italian ryegrass [6]; 125 g ai/ha): 50
pest or weed control at 16 g/ha (ragweed [7]; 16 g ai/ha, preemergence, scale 0 to 100 (0 no effect, 100 complete control), read-out: Ragweed plant response rating): 35%
pest or weed control at 125 g/ha (ragweed [7]; 125 g ai/ha, preemergence, scale 0 (no effect) to 100 (complete control), read-out: Ragweed plant response rating): 100%
pest or weed control at 62 g/ha (ragweed [7]; Preemergence, 62 g ai/ha, scale 0 to 100, 0 no effect, 100 complete control, read-out: Plant response rating, Ragweed): 85%
Plant response rating, Galium (galium [8]; 31 g ai/ha): 60
Plant response rating, Galium (galium [8]; 125 g ai/ha): 100
pest or weed control at 16 g/ha (johnsongrass; 16 g ai/ha, preemergence, scale 0 to 100 (0 no effect, 100 complete control), read-out: Johnsongrass plant response rating): 15%
pest or weed control at 125 g/ha (johnsongrass; 125 g ai/ha, preemergence, scale 0 (no effect) to 100 (complete control), read-out: Johnsongrass plant response rating): 100%
pest or weed control at 62 g/ha (johnsongrass; Preemergence, 62 g ai/ha, scale 0 to 100, 0 no effect, 100 complete control, read-out: Plant response rating, Johnsongrass): 60%
pest or weed control at 16 g/ha (large (Lg) crabgrass; 16 g ai/ha, preemergence, scale 0 to 100 (0 no effect, 100 complete control), read-out: Crabgrass, Large plant response rating): 85%
pest or weed control at 125 g/ha (large (Lg) crabgrass; 125 g ai/ha, preemergence, scale 0 (no effect) to 100 (complete control), read-out: Crabgrass, Large plant response rating): 100%
pest or weed control at 62 g/ha (large (Lg) crabgrass; Preemergence, 62 g ai/ha, scale 0 to 100, 0 no effect, 100 complete control, read-out: Plant response rating, Crabgrass, Large): 100%
